Measured values as given in patent US20040224987A1, “Crystalline form C of omeprazole sodium and the related process of its preparation, a crystalline form D of omeprazole sodium and the related process of its preparation, and a process for preparation of crystalline form a of omeprazole sodium” (DR. REDDY'S LABORATORIES LIMITED, priority 2003, published 2004).
Read-outs that look alike come from different tables or passages of the source.

Experiments:
[1] = hygroscopicity of crystalline forms of omeprazole sodium; assay type: physicochemical; settings: forms obtained by the processes of the invention
[2] = cited from earlier work; for physical stability: forms disclosed in WO 99/00380
[3] = stability of crystalline forms of omeprazole sodium
[4] = Form-A prepared according to Example 3 of WO99/00380, dried substance with one strongly bound water molecule, normal conditions; cited from earlier work

Structure (SMILES)	hygroscopicity [1]	physical stability [2]	also measured
COc1ccc2[n-]c([S+]([O-])Cc3ncc(C)c(OC)c3C)nc2c1.[Na+] (stereo not drawn) [Form C, omeprazole sodium]	less hygroscopic than Form A	–	–
COc1ccc2[n-]c([S+]([O-])Cc3ncc(C)c(OC)c3C)nc2c1.[Na+] (stereo not drawn) [Form D, omeprazole sodium]	non-hygroscopic	–	–
COc1ccc2[n-]c([S+]([O-])Cc3ncc(C)c(OC)c3C)nc2c1.[Na+] (stereo not drawn) [Form-B, omeprazole sodium]	–	physically stable	–
COc1ccc2[n-]c([S+]([O-])Cc3ncc(C)c(OC)c3C)nc2c1.[Na+] (stereo not drawn) [Form-A, omeprazole sodium]	non-hydroscopic	–	thermodynamic stability ([2]; Form-A produced according to Example 3 of WO 99/00380): thermodynamically unstable; thermodynamic stability ([3]; Form-A obtained by the process of the invention, compared with prior art processes): thermodynamically more stable; stability (kind not specified) ([3]; forms obtained by the processes of the invention): stable; hygroscopicity [4]: very hygroscopic
COc1ccc2[n-]c([S+]([O-])Cc3ncc(C)c(OC)c3C)nc2c1.[Na+] (stereo not drawn) [Form-X, omeprazole sodium]	–	physically unstable	–
